From patent US11570992B2, “Bicyclic compounds” (BASF SE, priority 2016, dated 2023)

Columns and labels:
Type in all cases: in vivo
[1] = tested on: boll weevil (Anthonomus grandis); assay: Boll weevil test, 96-well microtiter plates with insect diet and eggs; details: 120 h, egg and larval mortality after 5 days, read-out: mortality in comparison with untreated controls
Procedure: Boll Weevil (Anthonomus gandis)
For evaluating control of boll weevil (Anthonomus grandis) the test unit consisted of 96-well-microtiter plates containing an insect diet and 5-10 A. grandis eggs.
The compounds were formulated using a solution containing 75% v/v water and 25% v/v DMSO. Different concentrations of formulated compounds were sprayed onto the insect diet at 5 μl, using a custom built micro atomizer, at two replications.
After application, microtiter plates were incubated at about 25±1° C. and about 75±5% relative humidity for 5 days. Egg and larval mortality was then visually assessed.

[2] = tested on: Diamond Back Moth (Plutella xylostella); assay: Diamond back moth test, dipped cabbage leaves; details: 3rd instar larvae, 72 hours after treatment, read-out: mortality in comparison with untreated controls
Procedure: Diamond Back Moth (Plutella xylostella)
The active compound is dissolved at the desired concentration in a mixture of 1:1 (vol:vol) distilled water:acetone. Surfactant (Kinetic® HV) is added at a rate of 0.01% (vol/vol). The test solution is prepared at the day of use.
Leaves of cabbage were dipped in test solution and air-dried. Treated leaves were placed in petri dishes lined with moist filter paper and inoculated with ten 3rd instar larvae. Mortality was recorded 72 hours after treatment. Feeding damages were also recorded using a scale of 0-100%.

[3] = tested on: vetch aphid (Megoura viciae); assay: Vetch aphid test, broad bean leaf disks in 24-well plates; details: foliar, 120 h, 5 days, read-out: mortality in comparison with untreated controls
Procedure: Vetch Aphid (Megoura viciae)
For evaluating control of vetch aphid (Megoura viciae) through contact or systemic means the test unit consisted of 24-well-microtiter plates containing broad bean leaf disks.
The compounds were formulated using a solution containing 75% v/v water and 25% v/v DMSO. Different concentrations of formulated compounds were sprayed onto the leaf disks at 2.5 μl, using a custom built micro atomizer, at two replications.
After application, the leaf disks were air-dried and 5-8 adult aphids placed on the leaf disks inside the microtiter plate wells. The aphids were then allowed to suck on the treated leaf disks and incubated at about 23±1° C. and about 50±5% relative humidity for 5 days. Aphid mortality and fecundity was then visually assessed.

Row | Structure (SMILES) | mortality at 800 ppm [1] | mortality at 300 ppm [2] | mortality at 800 ppm [3]
1 | Cn1c(C(F)(F)F)cc2nc(-c3ccccc3Cl)cn2c1=O [Example C-1, 2-(2-chlorophenyl)-6-methyl-7-(trifluoromethyl)imidazo[1,2-c]pyrimidin-5-one] | > 75% | – | –
2 | CCS(=O)(=O)c1cccnc1-c1nc2cc(C(F)(F)F)cc(=O)n2n1C [Example C-4, 2-(3-ethylsulfonyl-2-pyridyl)-3-methyl-7-(trifluoromethyl)-[1,2,4]triazolo[1,5-a]pyridin-5-one] | – | > 75% | > 75%
